Measurements as given in patent publication US10710993B2, “Benzofuran pyrazole amine kinase inhibitor” (Hangzhou REX Pharmaceutical Co., LTD., priority 2016, dated 2020).

Key:
[1] = molecular target: T1, TEL-ALK-G1202R-BaF3 (Homo sapiens, UniProt Q9UM73, G1202R, cells depend on it); assay: Cell proliferation experiment (Cell-Titer GLO), TEL-ALK-G1202R-BaF3; assay type: cell-based; settings: 72 h, read-out: IC50 TEL-ALK G1202R-BaF3
T1 construct: fused on or other part: TEL (ETV6) N-terminal oligomerising part fused before the ALK intracellular/kinase part; P41212 (Transcription factor ETV6)
Procedure: (§1) Compounds to be tested: Positive compound Ceritinib and the compounds obtained by the examples of the present invention.
(§2) Cell lines: Karpas-299 and NCI-H3122 which were purchased from the Nanjing kebai biotechnology Co. LTD; TEL-ALK-F1174L-BaF3, TEL-ALK-G1202R-BaF3, TEL-ALK-C1156Y-BaF3 and TEL-ALK-L1196M-BaF3 which were purchased from Hefei zhongkopruisheng biological medicine technology Co. LTD.
(§3) Method: Cells were seeded in 96-well plates for 24 h in growth media containing 10% fetalbovine serum (FBS) and cultured overnight at 37° C. The following day, serial dilutions of compounds or appropriate control were added to the designated wells, and cells were incubated at 37° C. for 72 h. A Cell Titer Glo assay (Promega) was then performed to determine the relative cell numbers. IC50 values were calculated by concentration-response curve fitting using a four-parameter analytical method with Graphpad 6.0. Drug inhibition rate (%)=100%−[OD(Compound)−OD(blank)]/[OD(vehicle)−OD(blank)]×100% Equation: […]

[2] = test system: Karpas-299; assay: Cell proliferation experiment (Cell-Titer GLO), Karpas-299; assay type: cell-based; settings: Homo sapiens, 72 h
Procedure: as §1, §2, §3

[3] = molecular target: T2, TEL-ALK-C1156Y-BaF3 (Homo sapiens, UniProt Q9UM73, C1156Y, cells depend on it); assay: Cell proliferation experiment (Cell-Titer GLO), TEL-ALK-C1156Y-BaF3; assay type: cell-based; settings: 72 h, read-out: IC50 TEL-ALK C1156Y-BaF3
T2 construct: fused on or other part: TEL (ETV6) N-terminal oligomerising part fused before the ALK intracellular/kinase part; P41212 (Transcription factor ETV6)
Procedure: as §1, §2, §3

[4] = test system: NCI-H3122; assay: Cell proliferation experiment (Cell-Titer GLO), NCI-H3122; assay type: cell-based; settings: Homo sapiens, 72 h
Procedure: as §1, §2, §3

[5] = molecular target: T3, ALK L1196M (Homo sapiens, UniProt Q9UM73, L1196M); assay: LanthaScreen Eu Kinase Binding Assay (TR-FRET) on ALK mutant
T3 construct: purchased Life Technology
Description: Meanwhile, The LanthaScreen® Eu Kinase Binging Assay (TR-FRET) method was used for determining ALK Mutants (such as ALK L1196M) inhibitory activity IC50. LanthaScreen Eu kinase binding experiment detected Alexa Fluor conjugate or kinase “tracer” binding by adding Eu labeled antibodies or anti-label antibodies. The combination of tracer and antibody with kinase leads to a high level of FRET, whereas the use of kinase inhibitors in place of tracer may cause FRET loss.
(§4) The kinase activity assay was determined by using kinase assay panel (Life Technology) and the result was in table 1.

[6] = molecular target: T4, TEL-ALK-L1196M-BaF3 (Homo sapiens, UniProt Q9UM73, L1196M, cells depend on it); assay: Cell proliferation experiment (Cell-Titer GLO), TEL-ALK-L1196M-BaF3; assay type: cell-based; settings: 72 h, read-out: IC50 TEL-ALK L1196M-BaF3
T4 construct: fused on or other part: TEL (ETV6) N-terminal oligomerising part fused before the ALK intracellular/kinase part; P41212 (Transcription factor ETV6)
Procedure: as §2
Method: Cells were seeded in 96-well plates for 24 h in growth media containing 10% fetalbovine serum (FBS) and cultured overnight at 37° C. The following day, serial dilutions of compounds or appropriate control were added to the designated wells, and cells were incubated at 37° C. for 72 h. A Cell Titer Glo assay (Promega) was then performed to determine the relative cell numbers. IC50 values were calculated by concentration-response curve fitting using a four-parameter analytical method with Graphpad 6.0.

[7] = molecular target: T5, TEL-ALK-F1174L-BaF3 (Homo sapiens, UniProt Q9UM73, F1174L, cells depend on it); assay: Cell proliferation experiment (Cell-Titer GLO), TEL-ALK-F1174L-BaF3; assay type: cell-based; settings: 72 h, read-out: IC50 TEL-ALK F1174L-BaF3
T5 construct: fused on or other part: TEL (ETV6) N-terminal oligomerising part fused before the ALK intracellular/kinase part; P41212 (Transcription factor ETV6)
Procedure: as §1, §2, §3

[8] = molecular target: T6, Wild-Type ALK (Homo sapiens, UniProt Q9UM73); assay: Z'-LYTE (FRET) ALK kinase inhibitory activity; assay type: biochemical
T6 construct: purchased Life Technology
Procedure: as §4

[9] = test system: NCI-H2228 tumor cells; assay: Subcutaneous NCI-H2228 lung cancer xenograft model; assay type: in vivo, BALB/C nude mice
Procedure: BALB/C nude mice were inoculated at the right flank with NCI-H2228 tumor cells to establish the human Lung cancer xenograft model. […] The drug was administered for 14 days and then discontinued for two weeks. The therapeutic effect was evaluated by calculating the relative tumor proliferation rate T/C (%), and the tolerability of treatment was evaluated by the body weight changes and death.
Tumor volume (TV) were measured twice per week in two dimensions using a caliper, and the volume were expressed in mm^3 using the formula: V=0.5 a×b^2 where a and b are the long and short diameters of the tumor, respectively.
Relative tumor volume RTV=Vt/V0, Vt=tumor volume of the drug-treated group on a given day of the study, V0=tumor volume of the drug-treated group on the initial day of dosing.
The T/C value (%) is an indicator of tumor response to treatment, and one of commonly used anti-tumor activity endpoint; T/C %=TRTV/CRTV×100% Relative Tumor Growth Inhibition; % TGI=(1−T/C)×100%;

[10] = test system: zebrafish iridophore pigment cells; assay: Phenotypic screening of zebrafish: effect on iridophore pigment cells; assay type: in vivo, Zebrafish (Danio rerio); settings: for IOD: added at 6 hpf, images at 3 dpf
Description: Zebrafish (Danio rerio) is emerging as a predictive vertebrate animal model for in vivo assessment of drug efficacy, toxicity and safety. An important advantage of the zebrafish animal model is that the morphological and molecular basis of tissues and organs is either identical or similar to other vertebrates, including humans. The sequence and presumed function of many genes that are important for vertebrates are conserved in the zebrafish and the homology is as high as 85%. It has been shown that loss-of-function alleles for leukocyte tyrosine kinase (Ltk), the sister kinase to ALK, lack iridophores in zebrafish (Lopes, S. S., Yang, X., et al. (2008). Leukocyte tyrosine kinase functions in pigment cell development. PLoS Genet, 4.). Iridophores are neural crest-derived pigment cells that are clearly visible as shiny silver cells in the developing zebrafish embryo which distribute in the head, eyes, the lateral spine. ALK and LTK are sister kinase.
Therefore, using this principle, we investigated the effect of the compounds on normal zebrafish iridophore pigment cells to explore the compound's anti-ALK activity in vivo.
Method: Fish eggs of 6 hpf (hours post impurity) were randomly divided into groups. Then, subjects with different concentrations were added and the images were collected at 3 dpf (days post impurity). Then, the IOD (integrated option density) values of zebrafish dorsal iridophore pigment cells from the release pore to the caudal position were analyzed using ImageJ software. The Graphpad prism6.0 was used to conduct statistical analysis on Dunnett's t-test, and p<0.05 indicates statistical difference. The calculation formula of iridophore pigment inhibition rate is as follows: Inhibition rate (%)=[1−IOD(Compound)/IOD(vehicle)]×100%

T4 sequence (Q9UM73 whole entry L1196M, the tested form may be a part): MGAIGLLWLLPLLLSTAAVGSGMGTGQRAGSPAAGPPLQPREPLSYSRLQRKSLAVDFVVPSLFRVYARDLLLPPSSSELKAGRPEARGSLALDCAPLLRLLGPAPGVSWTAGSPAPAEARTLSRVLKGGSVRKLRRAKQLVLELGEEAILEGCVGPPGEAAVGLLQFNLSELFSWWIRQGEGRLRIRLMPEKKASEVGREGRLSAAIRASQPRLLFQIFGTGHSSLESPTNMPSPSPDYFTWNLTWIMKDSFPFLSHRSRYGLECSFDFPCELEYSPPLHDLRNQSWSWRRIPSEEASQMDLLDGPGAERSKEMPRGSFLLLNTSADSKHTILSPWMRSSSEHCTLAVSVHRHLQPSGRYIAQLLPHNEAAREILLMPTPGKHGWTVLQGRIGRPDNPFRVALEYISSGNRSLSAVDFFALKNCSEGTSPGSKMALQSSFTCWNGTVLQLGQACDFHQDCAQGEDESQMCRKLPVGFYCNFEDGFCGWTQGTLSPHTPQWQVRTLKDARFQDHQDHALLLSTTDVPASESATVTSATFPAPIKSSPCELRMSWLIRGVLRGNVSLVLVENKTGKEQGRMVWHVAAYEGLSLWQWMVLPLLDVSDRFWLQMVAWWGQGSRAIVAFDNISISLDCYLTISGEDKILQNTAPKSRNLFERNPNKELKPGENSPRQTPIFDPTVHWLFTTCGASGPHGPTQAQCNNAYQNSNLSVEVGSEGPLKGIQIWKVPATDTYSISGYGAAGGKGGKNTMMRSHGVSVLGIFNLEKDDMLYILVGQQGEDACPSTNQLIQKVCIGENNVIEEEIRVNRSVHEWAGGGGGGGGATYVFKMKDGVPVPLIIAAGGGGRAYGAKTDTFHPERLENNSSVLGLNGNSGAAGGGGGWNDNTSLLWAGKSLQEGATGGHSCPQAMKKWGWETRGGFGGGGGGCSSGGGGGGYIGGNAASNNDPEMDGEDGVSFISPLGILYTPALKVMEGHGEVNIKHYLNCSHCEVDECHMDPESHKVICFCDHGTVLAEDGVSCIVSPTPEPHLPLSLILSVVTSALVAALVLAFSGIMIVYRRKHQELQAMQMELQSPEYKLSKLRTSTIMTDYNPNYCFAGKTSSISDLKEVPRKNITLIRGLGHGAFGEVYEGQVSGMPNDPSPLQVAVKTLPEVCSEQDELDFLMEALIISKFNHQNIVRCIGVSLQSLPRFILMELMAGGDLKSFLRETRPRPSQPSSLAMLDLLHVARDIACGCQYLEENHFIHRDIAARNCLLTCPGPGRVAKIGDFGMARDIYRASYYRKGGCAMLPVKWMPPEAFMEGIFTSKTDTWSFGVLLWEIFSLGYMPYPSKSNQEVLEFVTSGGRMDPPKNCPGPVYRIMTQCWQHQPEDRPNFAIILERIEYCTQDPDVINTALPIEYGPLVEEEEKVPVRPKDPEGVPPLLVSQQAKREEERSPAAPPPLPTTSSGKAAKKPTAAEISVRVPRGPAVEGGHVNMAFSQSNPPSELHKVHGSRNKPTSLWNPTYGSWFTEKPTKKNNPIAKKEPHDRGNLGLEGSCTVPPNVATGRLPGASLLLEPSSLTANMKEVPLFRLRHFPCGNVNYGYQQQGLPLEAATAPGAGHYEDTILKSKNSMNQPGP
T5 sequence (Q9UM73 whole entry F1174L, the tested form may be a part): as the sequence (Q9UM73 whole entry L1196M, the tested form may be a part) above, with F1174L, M1196L counted along it
T6 sequence (Q9UM73 19-1620): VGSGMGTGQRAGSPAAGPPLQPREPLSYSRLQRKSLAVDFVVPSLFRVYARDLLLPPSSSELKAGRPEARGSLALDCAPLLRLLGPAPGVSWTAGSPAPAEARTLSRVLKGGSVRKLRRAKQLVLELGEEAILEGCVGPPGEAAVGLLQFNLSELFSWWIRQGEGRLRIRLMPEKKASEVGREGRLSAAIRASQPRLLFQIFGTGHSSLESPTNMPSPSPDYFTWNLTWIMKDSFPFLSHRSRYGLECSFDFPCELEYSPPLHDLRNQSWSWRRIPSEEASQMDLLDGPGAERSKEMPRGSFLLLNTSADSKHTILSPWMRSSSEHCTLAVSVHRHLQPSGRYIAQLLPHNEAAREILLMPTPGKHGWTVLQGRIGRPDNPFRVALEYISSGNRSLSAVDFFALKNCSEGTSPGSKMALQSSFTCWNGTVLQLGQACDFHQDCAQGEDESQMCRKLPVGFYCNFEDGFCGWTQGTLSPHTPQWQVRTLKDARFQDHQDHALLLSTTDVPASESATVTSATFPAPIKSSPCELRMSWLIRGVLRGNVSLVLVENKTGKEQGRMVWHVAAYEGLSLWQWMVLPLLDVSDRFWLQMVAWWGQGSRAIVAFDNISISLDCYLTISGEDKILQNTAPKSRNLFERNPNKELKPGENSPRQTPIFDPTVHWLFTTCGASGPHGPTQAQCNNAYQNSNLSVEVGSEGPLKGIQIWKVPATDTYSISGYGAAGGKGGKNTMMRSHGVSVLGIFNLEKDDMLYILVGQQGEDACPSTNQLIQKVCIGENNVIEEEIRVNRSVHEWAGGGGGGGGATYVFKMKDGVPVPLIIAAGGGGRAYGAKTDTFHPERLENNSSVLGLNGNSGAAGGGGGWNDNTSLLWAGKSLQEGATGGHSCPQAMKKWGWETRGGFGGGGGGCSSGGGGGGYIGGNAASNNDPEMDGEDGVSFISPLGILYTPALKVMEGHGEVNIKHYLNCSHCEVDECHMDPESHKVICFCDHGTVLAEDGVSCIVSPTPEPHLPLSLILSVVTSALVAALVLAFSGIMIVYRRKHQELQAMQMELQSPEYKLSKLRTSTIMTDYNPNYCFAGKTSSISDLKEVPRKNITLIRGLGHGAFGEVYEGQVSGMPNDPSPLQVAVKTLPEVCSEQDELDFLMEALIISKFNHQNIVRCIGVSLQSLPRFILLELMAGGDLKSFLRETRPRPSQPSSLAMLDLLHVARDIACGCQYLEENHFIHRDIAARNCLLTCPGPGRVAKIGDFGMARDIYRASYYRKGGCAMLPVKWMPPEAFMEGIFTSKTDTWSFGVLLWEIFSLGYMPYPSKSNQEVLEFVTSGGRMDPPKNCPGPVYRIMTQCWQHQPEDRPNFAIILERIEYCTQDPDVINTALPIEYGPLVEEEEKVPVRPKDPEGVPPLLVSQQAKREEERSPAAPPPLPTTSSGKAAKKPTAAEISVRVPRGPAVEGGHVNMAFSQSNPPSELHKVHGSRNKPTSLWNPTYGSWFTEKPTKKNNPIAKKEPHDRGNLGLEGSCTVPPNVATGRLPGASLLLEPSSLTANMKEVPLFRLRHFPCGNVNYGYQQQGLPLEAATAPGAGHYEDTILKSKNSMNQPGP
T2 sequence (Q9UM73 whole entry C1156Y, the tested form may be a part): as the sequence (Q9UM73 whole entry L1196M, the tested form may be a part) above, with C1156Y, M1196L counted along it
T1 sequence (Q9UM73 whole entry G1202R, the tested form may be a part): as the sequence (Q9UM73 whole entry L1196M, the tested form may be a part) above, with M1196L, G1202R counted along it
T3 sequence (Q9UM73 19-1620 L1196M): as the sequence (Q9UM73 19-1620) above, with L1178M counted along it

| SMILES | GI50 [1] [nM] | IC50 [2] [nM] | GI50 [3] [nM] | IC50 [4] [nM] | IC50 [5] [nM] | GI50 [6] [nM] | GI50 [7] [nM] | IC50 [8] [nM] | further results |
| --- | --- | --- | --- | --- | --- | --- | --- | --- | --- |
| Cc1cc(Nc2ncc(C(F)(F)F)c(Nc3cn(C)nc3S(=O)(=O)C(C)C)n2)c2c(c1C1CCNCC1)C[C@@H](C)O2 [REX-D3, (R)—N^2-(2,5-dimethyl-4-(piperidin-4-yl)-2,3-dihydrobenzofuran-7-yl)-N^4-(3-(isopropylsulfonyl)-1-methyl-1H-pyrazol-4-yl)-5-(trifluoromethyl)pyrimidine-2,4-diamine] | < 140 | < 20 | 10.5 | 10.8 | 1.25 | 10.4 | < 10 | 15.9 | – |
| Cc1cc(Nc2ncc(Cl)c(Nc3cn(C)nc3S(=O)(=O)C(C)C)n2)c2c(c1C1CCN(C)CC1)C[C@@H](C)O2 [REX-D2, (R)-5-chloro-N^2-(2,5-dimethyl-4-(1-methylpiperidin-4-yl)-2,3-dihydrobenzofuran-7-yl)-N^4-(3-(isopropylsulfonyl)-1-methyl-1H-pyrazol-4-yl)pyrimidine-2,4-diamine] | < 50 | < 10 | 10.4 | 10.6 | 0.695 | 10.5 | < 10 | 13.3 | TGI ([9]; 30 mg/kg PO QD 14 days, at 14 days after administration): 96.1%; tumor volume ([9]; 30 mg/kg PO QD 14 days, at 14 days after administration (first day after administration end)): 13 mm^3; TGI ([9]; 30 mg/kg PO QD 14 days, end of the experiment (15 days after the administration)): 98.8%; anti-tumor effect ([9]; 30 mg/kg, once a day, continuously for 14 days): significant anti-tumor effect; IOD ([10]; 5 μM): 420.9 ± 34.1; IOD ([10]; 10 μM): 173.8 ± 20.5; IOD ([10]; 15 μM): 64.6 ± 16.1; IOD ([10]; 20 μM): 24.8 ± 5.8; inhibition at 5 µM ([10]; Danio rerio, 5 μM, iridophore pigment, 3 dpf, read-out: Inhibition rate %): 38%; inhibition at 10 µM ([10]; Danio rerio, 10 μM, iridophore pigment, 3 dpf, read-out: Inhibition rate %): 75%; inhibition at 15 µM ([10]; Danio rerio, 15 μM, iridophore pigment, 3 dpf, read-out: Inhibition rate %): 91%; inhibition at 20 µM ([10]; Danio rerio, 20 μM, iridophore pigment, 3 dpf, read-out: Inhibition rate %): 96%; inhibition of the formation of iridophore pigment cells ([10]; different doses of concentration): significant inhibition |
| Cc1cc(Nc2ncc(C(F)(F)F)c(Nc3cn(C)nc3S(=O)(=O)C(C)C)n2)c2c(c1C1CCN(C)CC1)C[C@@H](C)O2 [REX-D4, (R)—N^2-(2,5-dimethyl-4-(1-methylpiperidin-4-yl)-2,3-dihydrobenzofuran-7-yl)-N^4-(3-(isopropylsulfonyl)-1-methyl-1H-pyrazol-4-yl)-5-(trifluoromethyl)pyrimidine-2,4-diamine] | < 50 | < 10 | 10.5 | 10.6 | 0.565 | 10.5 | < 10 | 5.9 | – |
